IC50 and EC50 data for 21 molecules are collected here from patent US9902740B2, “Macrocyclic benzodiazepine dimers, conjugates thereof, preparation and uses” (BRISTOL-MYERS SQUIBB COMPANY, priority 2015, dated 2018).

Holding throughout (type): cell-based
The subject of experiment [1] is N87 human gastric cancer cell line. In words: Cytotoxic activity of dimers against N87 cells. The settings on record: for IC50: read-out: Cell Line (IC50, nM) N87; for EC50: Table 5 comparative activities, N87. The text has this:
(§1) H226 is a human lung cancer cell line. N87 is a human gastric cancer cell line. OVCAR3 is a human ovarian cancer cell line. HCT116 is a human colon cancer cell line. HCT116/VM46 is a human colon cancer cell line that is multi-drug and paclitaxel resistant.

Experiment [2] deals with H226 human lung cancer cell line. In words: Cytotoxic activity of dimers against H226 cells. As to conditions: for EC50: Table 5 comparative activities, H226.
Description: as §1

Experiment [3] has as its system HCT116/VM46 human colon cancer cell line (multi-drug and paclitaxel resistant). In words: Cytotoxic activity of dimers against HCT116/VM46 cells.
Description: as §1

The test system of experiment [4] is OVCAR3 human ovarian cancer cell line. In words: Cytotoxic activity of dimers against OVCAR3 cells. As to conditions: for EC50: Table 5 comparative activities, OVCAR3.
Description: as §1

The subject of experiment [5] is HCT116 human colon cancer cell line. Kind of experiment: Cytotoxic activity of dimers against HCT116 cells.
Description: as §1

Setting [6] is: Table 4, N87 human gastric cancer cell line.
[7] abbreviates: Table 4, H226 human lung cancer cell line, read-out: Cell Line (IC50, nM) H226.
[8] abbreviates: Table 4, OVCAR3 human ovarian cancer cell line, read-out: Cell Line (IC50, nM) OVCAR3.
Where [9] appears, read: Homo sapiens, NCI-H226, read-out: Cell Line (IC50, nM) H226.
Setting [10] is: Homo sapiens, HCT-116/VM46, Table 4.
Where [11] appears, read: Homo sapiens, OVCAR-3, read-out: Cell Line (IC50, nM) OVCAR3.

Like-named read-outs stand apart in the source and are kept apart here.

Usually IC50 stands for the concentration that inhibits the measured activity by half. For the molecule `O=C1c2cc3c(cc2N=C[C@@H]2CC(c4ccccc4)=CN12)OCCCOc1cc2c(cc1OCCCCCCCCCCO3)C(=O)N1C=C(c3ccccc3)C[C@H]1C=N2` [IIc-1], the IC50 is 12 nM in experiment [1] (setting [6]), 12 nM in experiment [2] (setting [7]), 30 nM in experiment [3] (Table 4) and 7.6 nM in experiment [4] (setting [8]).
With `CC1=CN2C(=O)c3cc4c(cc3N=C[C@@H]2C1)OCCCOc1cc2c(cc1OCCCCCCCCO4)C(=O)N1C=C(c3ccc(N)cc3)C[C@H]1C=N2` [IId-1], the IC50 amounted to 1.4 nM in experiment [1] (Homo sapiens); 0.66 nM in experiment [2] (setting [9]); 1.2 nM in experiment [3] (setting [10]); 1.2 nM in experiment [4] (setting [11]); 0.14 nM in experiment [5] (HCT-116, Table 4).
By EC50 is commonly meant the concentration needed to bring the measured effect to its halfway point. Higher therefore signals weaker potency. As for `O=C1c2cc3c(cc2N=C[C@@H]2CCCN12)OCCCCCOc1cc2c(cc1OCCCCCCCCCCCCO3)C(=O)N1CCC[C@H]1C=N2` [IIa-8], the IC50 in experiment [1] (setting [6]) worked out at 15 nM; in experiment [2] (setting [7]) it was 10 nM; in experiment [4] (setting [8]), 9.9 nM. Moreover, the half-maximal effective concentration (EC50) in experiment [1] came to 15 nM; in experiment [2], 10 nM; in experiment [4], 9.9 nM.
As to `CN1CCN(c2ccc(C3=CN4C(=O)c5cc6c(cc5NC[C@@H]4C3)OCCCOc3cc4c(cc3OCCCCCCCCO6)C(=O)N3C=C(c5ccc(N6CCN(C)CC6)cc5)C[C@H]3CN4)cc2)CC1` [IId-4], the IC50 in experiment [1] (setting [6]) turned out to be 12 nM; in experiment [2] (setting [7]), 8.1 nM; in experiment [3] (Table 4), 4.8 nM; in experiment [4] (setting [8]), 20 nM; in experiment [5] (Table 4) it was 2 nM.
For the molecule `O=C1c2cc3c(cc2N=C[C@@H]2Cc4ccccc4N12)OCCCOc1cc2c(cc1OCCCCCCCCCCO3)C(=O)N1c3ccccc3C[C@H]1C=N2` [IIb-3], the IC50 in experiment [1] (setting [6]) came out at 11 nM; in experiment [2] (setting [7]) it was 5.9 nM; in experiment [3] (Table 4), 13 nM; in experiment [4] (setting [8]), 3.5 nM.
For `C=C1C[C@H]2C=Nc3cc4c(cc3C(=O)N2C1)OCCCC/C=C/CCCCOc1cc2c(cc1OCCCO4)N=C[C@@H]1CC(=C)CN1C2=O` [IIa-10] the same measures were 2.3 nM, 2 nM, 11 nM and 0.47 nM.
`O=C1c2cc3c(cc2N=C[C@@H]2CCCN12)OCCCOc1cc2c(cc1OCCCCCCCCO3)C(=O)N1CCC[C@H]1C=N2` [IIa-2]: the IC50 is 2.7 nM in experiment [1] (setting [6]), 1.6 nM in experiment [2] (setting [7]) and 1.2 nM in experiment [4] (setting [8]). Besides, the values for the EC50 in experiment [1], in experiment [2] and in experiment [4] were 2.7 nM, 1.6 nM and 1.2 nM, respectively.
Consider `O=C1c2cc3c(cc2N=C[C@@H]2CCCN12)OCCCOc1cc2c(cc1OCCCC/C=C/CCCCO3)C(=O)N1CCC[C@H]1C=N2` [IIa-9], for which the IC50 in experiment [1] (setting [6]) is 13 nM; in experiment [2] (setting [7]) it was 12 nM; in experiment [4] (setting [8]), 12 nM. Moreover, the figures for the EC50 in experiment [1], in experiment [2] and in experiment [4] were 13 nM, 12 nM and 12 nM, respectively.
For the molecule `COc1cc2c(cc1OCCCOc1cc3c(cc1OC)C(=O)N1CCC[C@H]1C=N3)N=C[C@@H]1CCCN1C2=O` [Dimer A-4, reference compound], the EC50 in experiment [1] (Homo sapiens) was 63 nM; in experiment [2] (Homo sapiens, NCI-H226), 70 nM; in experiment [4] (Homo sapiens, OVCAR-3) it was 56 nM.
As for `CN1CCN(c2ccc(C3=CN4C(=O)c5cc6c(cc5NC[C@@H]4C3)OCCCOc3cc4c(cc3OCCCCCCCCO6)C(=O)N3C=C(c5ccc(N6CCN(C)CC6)cc5)C[C@H]3C=N4)cc2)CC1` [IId-3], the IC50 in experiment [1] (Homo sapiens) was found to be 0.072 nM; in experiment [2] (setting [9]), 0.035 nM; in experiment [3] (setting [10]), 0.033 nM; in experiment [4] (setting [11]), 0.26 nM; in experiment [5] (HCT-116, Table 4) it was 0.045 nM.
With `O=C1c2cc3c(cc2N=C[C@@H]2Cc4ccccc4CN12)OCCCOc1cc2c(cc1OCCCCNCCCCO3)C(=O)N1Cc3ccccc3C[C@H]1C=N2` [IIb-5], the IC50 in experiment [1] (setting [6]) worked out at 0.35 nM; in experiment [2] (setting [7]), 0.45 nM; in experiment [3] (Table 4), 7.3 nM; in experiment [4] (setting [8]) it was 0.6 nM; in experiment [5] (Table 4) it was 0.077 nM.
In the case of `CN1CCN(c2ccc(C3=CN4C(=O)c5cc6c(cc5N=C[C@@H]4C3)OCCCOc3cc4c(cc3OCCCCCCCCO6)C(=O)N3C=C(c5ccc(N)cc5)C[C@H]3C=N4)cc2)CC1` [IIc-10], the IC50 in experiment [1] (setting [6]) came out at 0.36 nM; in experiment [2] (setting [7]) it was 0.044 nM; in experiment [3] (Table 4), 0.071 nM; in experiment [4] (setting [8]) it was 0.36 nM; in experiment [5] (Table 4), 0.022 nM.
For the molecule `O=C1c2cc3c(cc2N=C[C@@H]2CCCN12)OCCCCCOc1cc2c(cc1OCCCCCCCCCCCO3)C(=O)N1CCC[C@H]1C=N2` [IIa-7], the IC50 is 87 nM in experiment [1] (setting [6]), 12 nM in experiment [2] (setting [7]) and 14 nM in experiment [4] (setting [8]). Further, the results for the EC50 in experiment [1], in experiment [2] and in experiment [4] were 87 nM, 12 nM and 14 nM, respectively.
Take `O=C1c2cc3c(cc2N=C[C@@H]2CCCN12)OCCCOc1cc2c(cc1OCCCCCCCCCCO3)C(=O)N1CCC[C@H]1C=N2` [IIa-4]: the IC50 in experiment [1] (setting [6]) turned out to be 22 nM; in experiment [2] (setting [7]), 12 nM; in experiment [4] (setting [8]) it was 20 nM. In addition, the EC50 in experiment [1] was 22 nM; in experiment [2], 12 nM; in experiment [4], 20 nM.
Take `O=C1c2cc3c(cc2N=C[C@@H]2CCCN12)OCCCOc1cc2c(cc1OCCCCCCCCCO3)C(=O)N1CCC[C@H]1C=N2` [IIa-3]: the figures for the IC50 in experiment [1] (setting [6]), in experiment [2] (setting [7]) and in experiment [4] (setting [8]) were 8.3 nM, 8.7 nM and 7.3 nM, respectively. Further, the EC50 turned out to be 8.3 nM in experiment [1], 8.7 nM in experiment [2] and 7.3 nM in experiment [4].
As to `O=C1c2cc3c(cc2N=C[C@@H]2Cc4ccccc4CN12)OCCCOc1cc2c(cc1OCCCCCCCCCCO3)C(=O)N1Cc3ccccc3C[C@H]1C=N2` [IIb-2], the IC50 in experiment [1] (setting [6]) was 2.5 nM; in experiment [2] (setting [7]), 3 nM; in experiment [3] (Table 4), 17 nM; in experiment [4] (setting [8]), 1.3 nM.
Consider `O=C1c2cc3c(cc2N=C[C@@H]2CCCN12)OCCCOc1cc2c(cc1OCCCCCCCCCCCO3)C(=O)N1CCC[C@H]1C=N2` [IIa-5], for which the IC50 in experiment [1] (setting [6]) is 150 nM; in experiment [2] (setting [7]) it was 69 nM; in experiment [4] (setting [8]), 78 nM. The results for the 50% effective concentration (EC50) in experiment [1], in experiment [2] and in experiment [4] were 150 nM, 69 nM and 78 nM, respectively.
With `O=C1c2cc3c(cc2N=C[C@@H]2Cc4ccccc4CN12)OCCCOc1cc2c(cc1OCCCCCCCCO3)C(=O)N1Cc3ccccc3C[C@H]1C=N2` [IIb-1], the IC50 in experiment [1] (setting [6]) is 0.53 nM; in experiment [2] (setting [7]), 0.22 nM; in experiment [3] (Table 4), 1.3 nM; in experiment [4] (setting [8]), 0.33 nM.
Consider `O=C1c2cc3c(cc2N=C[C@@H]2CCCN12)OCCCOc1cc2c(cc1OCCCCCCCCCCCCO3)C(=O)N1CCC[C@H]1C=N2` [IIa-6], for which the IC50 in experiment [1] (setting [6]) stood at 310 nM; in experiment [2] (setting [7]) it was 110 nM; in experiment [4] (setting [8]), 140 nM. Besides, the EC50 was determined as 310 nM in experiment [1], 110 nM in experiment [2] and 140 nM in experiment [4].
In the case of `O=C1c2cc3c(cc2N=C[C@@H]2CCCN12)OCCCOc1cc2c(cc1OCCCCCCCO3)C(=O)N1CCC[C@H]1C=N2` [IIa-1], the IC50 is 4.6 nM in experiment [1] (setting [6]), 8.1 nM in experiment [2] (setting [7]), 74 nM in experiment [3] (Table 4) and 3.4 nM in experiment [4] (setting [8]). Moreover, the results for the EC50 in experiment [1], in experiment [2] and in experiment [4] were 4.6 nM, 8.1 nM and 3.4 nM, respectively.
With `C=C1C[C@H]2C=Nc3cc4c(cc3C(=O)N2C1)OCCCCCCCCOc1cc2c(cc1OCCCO4)N=C[C@@H]1CC(=C)CN1C2=O` [IIa-12], the half-maximal inhibitory concentration (IC50) was 0.89 nM in experiment [1] (setting [6]), 0.32 nM in experiment [2] (setting [7]), 4.8 nM in experiment [3] (Table 4) and 0.52 nM in experiment [4] (setting [8]).
